In brackets after ≈: the same amount, converted by molar mass. Read-outs that look alike come from different tables or passages of the source. Bridge positions count the residues as written; N and C are the ends. Square brackets hold non-standard residues; d marks the D form. Peptide text beside a SMILES is read from it. * marks the point of attachment. dCha = N[C@H](CC1CCCCC1)C(=O)O; X20 = NCC(Cc1ccccc1F)C(=O)*; Dab = NCC[C@H](N)C(=O)O
Experiments:
Format in all cases: cell-based
[1] = test system: Escherichia coli
In short: (§1)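 Each compound was tested against a panel of up to nine strains per Gram-negative species. The panel included strains that show elevated MICs to Polymyxin. Activity was recorded as MIC in μg/mL.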

[2] = test system: Pseudomonas aeruginosa
In short: as §1

[3] = test system: Klebsiella pneumoniae
In short: as §1

[4] = test system: Acinetobacter baumannii
In short: as §1

Row | MIC E. coli 058 [1] [µg/mL] | MIC E. coli 061 [1] [µg/mL] | MIC E. coli ATCC 25922 [1] [µg/mL] | MIC P. aeruginosa 068 [2] [µg/mL] | MIC P. aeruginosa 070 [2] [µg/mL] | MIC P. aeruginosa ATCC 27853 [2] [µg/mL] | MIC K. pneumoniae 063 [3] [µg/mL] | MIC K. pneumoniae 065 [3] [µg/mL] | MIC A. baumanii 053 [4] [µg/mL] | MIC A. baumanii 056 [4] [µg/mL] | MIC A. baumanii ATCC BAA-747 [4] [µg/mL] | MIC P. aeruginosa CCUG 59347 [2] [µg/mL] | MIC K. pneumoniae ATCC 13882 [3] [µg/mL] | MIC A. baumanii NCTC 13424 [4] [µg/mL] | SMILES | other results
1 | 16 (≈ 13.4 µM) | 64 (≈ 53.5 µM) | 1 (≈ 0.837 µM) | 8 (≈ 6.69 µM) | 16 (≈ 13.4 µM) | 1 (≈ 0.837 µM) | >64 | 64 (≈ 53.5 µM) | >64 | 32 (≈ 26.8 µM) | 2 (≈ 1.67 µM) | – | – | – | CC(C)CC1CNCC(C(=O)N[C@H](C(=O)N[C@@H](CN)C(=O)N[C@H]2CCNC(=O)[C@H]([C@@H](C)O)NC(=O)[C@H](CCN)NC(=O)[C@H](CCN)NC(=O)[C@H](CC(C)C)NC(=O)[C@@H](Cc3ccc(Br)cc3)NC(=O)[C@H](CCN)NC2=O)C(C)O)C1 (single isomer, unassigned; isomer 1) [Example 11, (trans-5-(isobutyl-piperidine)-3-carbonyl L-Thr-L-Dap-polymyxin [D-(4-bromo Phe)]-6] hept apeptide Isomer 1] | MIC E. coli 059 [1]: 32 µg/mL (≈ 26.8 µM); MIC E. coli 060 [1]: 16 µg/mL (≈ 13.4 µM); MIC K. pneumoniae 062 [3]: >64 µg/mL; MIC K. pneumoniae 064 [3]: >64 µg/mL; MIC K. pneumoniae 066 [3]: >64 µg/mL; MIC K. pneumoniae 067 [3]: >64 µg/mL; MIC K. pneumoniae ATCC 4352 [3]: 1 µg/mL (≈ 0.837 µM)
2 | 2 (≈ 1.74 µM) | – | 0.5 (≈ 0.434 µM) | – | – | 0.5 (≈ 0.434 µM) | – | 0.25 (≈ 0.217 µM) | – | – | 0.5 (≈ 0.434 µM) | 0.5 (≈ 0.434 µM) | 0.5 (≈ 0.434 µM) | 0.25 (≈ 0.217 µM) | CC(C)C[C@@H]1NC(=O)[C@@H](CC2CCCCC2)NC(=O)[C@H](CCN)NC(=O)[C@@H](NC(=O)[C@H](CN)NC(=O)[C@@H](NC(=O)CC(CN)c2ccc(Cl)cc2)C(C)O)CCNC(=O)[C@H]([C@@H](C)O)NC(=O)[C@H](CCN)NC(=O)[C@H](CCN)NC1=O (single isomer, unassigned; isomer 2) [Example 51, 4-amino-3-(4-chlorophenyl) butanoyl L-Thr-L-Dap-polymyxin [D-cyclohexylalanine]-6 heptapeptide. Isomer 2] | –
3 | 4 (≈ 3.48 µM) | 32 (≈ 27.9 µM) | 0.125 (≈ 0.109 µM) | 8 (≈ 6.97 µM) | 16 (≈ 13.9 µM) | 0.5 (≈ 0.435 µM) | 64 (≈ 55.7 µM) | 8 (≈ 6.97 µM) | >64 | >64 | 0.5 (≈ 0.435 µM) | 0.5 (≈ 0.435 µM) | 0.125 (≈ 0.109 µM) | 0.5 (≈ 0.435 µM) | CC(C)C[C@@H]1NC(=O)[C@@H](CC2CCCCC2)NC(=O)[C@H](CCN)NC(=O)[C@@H](NC(=O)[C@H](CCN)NC(=O)[C@@H](NC(=O)C(CN)Cc2ccccc2F)[C@@H](C)O)CCNC(=O)[C@H]([C@@H](C)O)NC(=O)[C@H](CCN)NC(=O)[C@H](CCN)NC1=O (stereo partly shown) [Example 62, 3-amino-2-(2-fluorobenzyl) propanoyl] (X20-T[Dab][Dab][Dab][dCha]L[Dab][Dab]T; lactam 3-C) | –
4 | – | – | – | – | – | – | – | – | – | – | – | – | – | – | CC(C)C[C@@H]1NC(=O)[C@@H](CC2CCCCC2)NC(=O)[C@H](CCN)NC(=O)[C@@H](NC(=O)[C@H](CCN)NC(=O)[C@@H](NC(=O)CC(CN)CC2CCCCC2)[C@@H](C)O)CCNC(=O)[C@H]([C@@H](C)O)NC(=O)[C@H](CCN)NC(=O)[C@H](CCN)NC1=O (single isomer, unassigned; isomer 1) [Example 91, 4-amino-3-(cyclohexylmethyl) butanoyl polymyxin [D-cyclohexylalanine-6]nonapeptide. Isomer 1] | MIC E. coli 058 ([1]; strain 058): 4 µg/mL (≈ 3.48 µM); MIC E. coli ATCC 25922 ([1]; strain ATCC 25922): 0.125 µg/mL (≈ 0.109 µM); MIC P. aeruginosa ATCC 27853 ([2]; strain ATCC 27853): 0.25 µg/mL (≈ 0.217 µM); MIC P. aeruginosa CCUG 59347 ([2]; strain CCUG 59347): 0.5 µg/mL (≈ 0.435 µM); MIC K. pneumoniae 065 ([3]; strain 065): 4 µg/mL (≈ 3.48 µM); MIC K. pneumoniae ATCC 13882 ([3]; strain ATCC 13882): 0.25 µg/mL (≈ 0.217 µM); MIC A. baumanii ATCC BAA-747 ([4]; strain ATCC BAA-747): 0.25 µg/mL (≈ 0.217 µM); MIC A. baumanii NCTC 13424 ([4]; strain NCTC 13424): 0.125 µg/mL (≈ 0.109 µM)
5 | 2 (≈ 1.63 µM) | 2 (≈ 1.63 µM) | 2 (≈ 1.63 µM) | 4 (≈ 3.26 µM) | 4 (≈ 3.26 µM) | 2 (≈ 1.63 µM) | 16 (≈ 13 µM) | 4 (≈ 3.26 µM) | 2 (≈ 1.63 µM) | 2 (≈ 1.63 µM) | 2 (≈ 1.63 µM) | – | – | – | CCCCCC/C=C/c1ccc(C[C@H]2NC(=O)[C@H](CCN)NC(=O)[C@@H](NC(=O)[C@H](CN)NC(=O)[C@@H](NC(=O)C3CNCC(CC(C)C)C3)C(C)O)CCNC(=O)[C@H]([C@@H](C)O)NC(=O)[C@H](CCN)NC(=O)[C@H](CCN)NC(=O)[C@H](CC(C)C)NC2=O)cc1 (single isomer, unassigned; isomer 1) [Example 17, (trans-5-(isobutyl-piperidine)-3-carbonyl L-Thr-L-Dap-polymyxin [D-(4-(E)-oct-1-enyl) Phe]-6]heptapeptide Isomer 1] | MIC E. coli 059 [1]: 2 µg/mL (≈ 1.63 µM); MIC E. coli 060 [1]: 2 µg/mL (≈ 1.63 µM); MIC K. pneumoniae 062 [3]: 4 µg/mL (≈ 3.26 µM); MIC K. pneumoniae 064 [3]: 8 µg/mL (≈ 6.52 µM); MIC K. pneumoniae 067 [3]: 32 µg/mL (≈ 26.1 µM); MIC K. pneumoniae ATCC 4352 [3]: 2 µg/mL (≈ 1.63 µM)
6 | 4 (≈ 3.48 µM) | 16 (≈ 13.9 µM) | 0.125 (≈ 0.109 µM) | 4 (≈ 3.48 µM) | 4 (≈ 3.48 µM) | 0.25 (≈ 0.218 µM) | 32 (≈ 27.9 µM) | 1 (≈ 0.871 µM) | 32 (≈ 27.9 µM) | 8 (≈ 6.97 µM) | 0.125 (≈ 0.109 µM) | 0.5 (≈ 0.435 µM) | 0.25 (≈ 0.218 µM) | 0.25 (≈ 0.218 µM) | CC(C)C[C@@H]1NC(=O)[C@@H](CC2CCCCC2)NC(=O)[C@H](CCN)NC(=O)[C@@H](NC(=O)[C@H](CCN)NC(=O)[C@@H](NC(=O)C(CCN)c2ccc(F)cc2)C(C)O)CCNC(=O)[C@H]([C@@H](C)O)NC(=O)[C@H](CCN)NC(=O)[C@H](CCN)NC1=O (single isomer, unassigned; isomer 2) [Example 54, 4-amino-2-(4-fluorophenyl) butanoyl polymyxin [D-cyclohexylalanine]-6 nonapeptide isomer 2] | MIC E. coli NCTC 9001 [1]: 0.06 µg/mL (≈ 0.0522 µM)
7 | 8 (≈ 7.17 µM) | – | 0.25 (≈ 0.224 µM) | – | – | 0.25 (≈ 0.224 µM) | – | 32 (≈ 28.7 µM) | – | – | 0.25 (≈ 0.224 µM) | 0.5 (≈ 0.448 µM) | 0.25 (≈ 0.224 µM) | 0.25 (≈ 0.224 µM) | CC(C)C[C@@H]1NC(=O)[C@@H](CC2CCCCC2)NC(=O)[C@H](CCN)NC(=O)[C@@H](NC(=O)[C@H](CN)NC(=O)[C@@H](NC(=O)CCC(N)c2ccccc2)[C@@H](C)O)CCNC(=O)[C@H]([C@@H](C)O)NC(=O)[C@H](CCN)NC(=O)[C@H](CCN)NC1=O (single isomer, unassigned; isomer 2) [Example 61, 4-amino-4-phenylbutanoyl L-Thr-L-Dap-polymyxin [D-cyclohexylalanine]-6 heptapeptide. Isomer 2] | –

From patent publication US12146004B2, “Polymyxin compounds and uses thereof” (priority 2014, dated 2024)
